Values of other authors in patent US9855260B2, “Quinolinone derivatives” (GlaxoSmithKline LLC, priority 2011, dated 2018).

System: ob/ob and db/db mice
Details: 8 day administration

## NC(=O)c1ncn([C@@H]2O[C@H](CO)[C@@H](O)[C@H]2O)c1N [AICAR, 5-aminoimidazole-4-carboxamide-1(beta)-D-ribofuranoside]
  reduces blood glucose: 35%
